Assay results from publication PMC11314561, “Design and Synthesis of Novel Aminoindazole-pyrrolo[2,3-b]pyridine Inhibitors of IKKα That Selectively Perturb Cellular Non-Canonical NF-κB Signalling” (Molecules, 2024).

What was measured:
Test in all cases: kinase panel
Assay type in all cases: biochemical
IGF-1R(h) = IGF-1R(h) (Homo sapiens, UniProt P08069)
In short: (§1)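 Percentage inhibition was recorded for each compound against a broad kinase panel of 231 enzymes. Because of its close structural resemblance to another analogue, one compound was screened against 98 chosen kinases.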

GRK5(h) = GRK5(h) (Homo sapiens, UniProt P34947)
In short: as §1

Hck(h) activated = Hck(h) activated (Homo sapiens, UniProt P08631)
Chain of Hck(h) activated (P08631 whole entry): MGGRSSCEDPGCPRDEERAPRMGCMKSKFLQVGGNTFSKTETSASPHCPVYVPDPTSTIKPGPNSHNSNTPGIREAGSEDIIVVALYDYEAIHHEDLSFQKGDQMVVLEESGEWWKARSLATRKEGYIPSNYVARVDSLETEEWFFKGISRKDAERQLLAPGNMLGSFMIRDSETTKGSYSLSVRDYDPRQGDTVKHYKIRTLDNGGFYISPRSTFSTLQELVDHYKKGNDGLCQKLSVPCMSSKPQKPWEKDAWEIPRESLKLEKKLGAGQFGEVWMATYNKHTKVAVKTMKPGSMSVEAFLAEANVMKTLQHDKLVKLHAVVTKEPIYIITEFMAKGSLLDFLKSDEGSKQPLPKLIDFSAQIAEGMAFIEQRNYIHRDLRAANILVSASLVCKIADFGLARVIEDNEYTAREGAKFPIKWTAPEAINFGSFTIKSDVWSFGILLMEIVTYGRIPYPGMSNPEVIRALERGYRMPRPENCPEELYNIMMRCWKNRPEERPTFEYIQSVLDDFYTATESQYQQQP
In short: as §1

Fyn(h) = Fyn(h) (Homo sapiens, UniProt P06241)
Chain of Fyn(h) (P06241 whole entry): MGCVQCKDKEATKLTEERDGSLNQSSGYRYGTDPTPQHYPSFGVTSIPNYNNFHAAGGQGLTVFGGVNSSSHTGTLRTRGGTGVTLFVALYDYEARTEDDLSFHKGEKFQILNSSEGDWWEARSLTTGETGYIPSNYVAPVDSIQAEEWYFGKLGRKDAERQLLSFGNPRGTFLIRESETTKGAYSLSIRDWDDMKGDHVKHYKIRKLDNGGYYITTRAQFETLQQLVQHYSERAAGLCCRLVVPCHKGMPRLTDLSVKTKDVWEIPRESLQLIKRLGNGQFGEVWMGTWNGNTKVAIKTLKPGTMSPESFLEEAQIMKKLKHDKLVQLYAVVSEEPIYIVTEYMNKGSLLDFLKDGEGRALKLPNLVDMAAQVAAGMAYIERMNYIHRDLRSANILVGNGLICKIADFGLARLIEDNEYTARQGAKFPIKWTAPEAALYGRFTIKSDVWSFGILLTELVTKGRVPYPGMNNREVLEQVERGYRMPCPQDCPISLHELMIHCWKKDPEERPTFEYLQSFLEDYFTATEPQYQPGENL
In short: as §1

PKG1α(h) = PKG1α(h) (Homo sapiens, UniProt Q13976)
In short: as §1

AMPKα2(h) = AMPKα2(h) (Homo sapiens, UniProt P54646)
In short: as §1

CSK(h) = CSK(h) (Homo sapiens, UniProt P41240)
In short: as §1

Axl(h) = Axl(h) (Homo sapiens, UniProt P30530)
In short: as §1

PDGFRα(h) = PDGFRα(h) (Homo sapiens, UniProt P16234)
In short: as §1

Rsk2(h) = Rsk2(h) (Homo sapiens, UniProt P51812)
Chain of Rsk2(h) (P51812 whole entry): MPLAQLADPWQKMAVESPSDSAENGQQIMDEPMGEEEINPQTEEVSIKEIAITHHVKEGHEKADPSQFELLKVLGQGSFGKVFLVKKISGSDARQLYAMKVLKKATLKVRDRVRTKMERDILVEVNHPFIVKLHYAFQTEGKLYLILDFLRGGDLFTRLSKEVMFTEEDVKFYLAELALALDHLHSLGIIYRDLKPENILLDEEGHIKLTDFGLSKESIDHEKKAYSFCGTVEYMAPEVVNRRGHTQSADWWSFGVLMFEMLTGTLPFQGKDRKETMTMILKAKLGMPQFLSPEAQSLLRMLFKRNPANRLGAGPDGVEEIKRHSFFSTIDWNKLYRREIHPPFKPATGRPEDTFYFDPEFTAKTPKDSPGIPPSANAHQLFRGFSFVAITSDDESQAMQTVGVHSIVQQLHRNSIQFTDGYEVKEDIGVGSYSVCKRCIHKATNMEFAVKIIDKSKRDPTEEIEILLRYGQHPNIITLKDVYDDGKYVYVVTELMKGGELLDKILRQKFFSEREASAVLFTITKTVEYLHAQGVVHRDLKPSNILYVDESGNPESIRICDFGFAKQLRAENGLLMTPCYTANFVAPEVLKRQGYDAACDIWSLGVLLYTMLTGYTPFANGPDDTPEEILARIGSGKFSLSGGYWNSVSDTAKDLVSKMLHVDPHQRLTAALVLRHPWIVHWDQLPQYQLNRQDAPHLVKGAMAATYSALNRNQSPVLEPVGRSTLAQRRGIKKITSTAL
In short: as §1

NEK6(h) = NEK6(h) (Homo sapiens, UniProt Q9HC98)
In short: as §1

Ros(h) = Ros(h) (Homo sapiens, UniProt P08922)
In short: as §1

Bmx(h) = Bmx(h) (Homo sapiens, UniProt P51813)
In short: as §1

Blk(h) = Blk(h) (Homo sapiens, UniProt P51451)
In short: as §1

ALK4(h) = ALK4(h) (Homo sapiens, UniProt P36896)
In short: as §1

Pim-3(h) = Pim-3(h) (Homo sapiens, UniProt Q86V86)
In short: as §1

cKit(h) = cKit(h) (Homo sapiens, UniProt P10721)
In short: as §1

PKCγ(h) = PKCγ(h) (Homo sapiens, UniProt P05129)
In short: as §1

DMPK(h) = DMPK(h) (Homo sapiens, UniProt Q09013)
In short: as §1

SAPK2a(h) = SAPK2a(h) (Homo sapiens, UniProt Q16539)
In short: as §1

DCAMKL2(h) = DCAMKL2(h) (Homo sapiens, UniProt Q8N568)
Chain of DCAMKL2(h) (Q8N568 whole entry): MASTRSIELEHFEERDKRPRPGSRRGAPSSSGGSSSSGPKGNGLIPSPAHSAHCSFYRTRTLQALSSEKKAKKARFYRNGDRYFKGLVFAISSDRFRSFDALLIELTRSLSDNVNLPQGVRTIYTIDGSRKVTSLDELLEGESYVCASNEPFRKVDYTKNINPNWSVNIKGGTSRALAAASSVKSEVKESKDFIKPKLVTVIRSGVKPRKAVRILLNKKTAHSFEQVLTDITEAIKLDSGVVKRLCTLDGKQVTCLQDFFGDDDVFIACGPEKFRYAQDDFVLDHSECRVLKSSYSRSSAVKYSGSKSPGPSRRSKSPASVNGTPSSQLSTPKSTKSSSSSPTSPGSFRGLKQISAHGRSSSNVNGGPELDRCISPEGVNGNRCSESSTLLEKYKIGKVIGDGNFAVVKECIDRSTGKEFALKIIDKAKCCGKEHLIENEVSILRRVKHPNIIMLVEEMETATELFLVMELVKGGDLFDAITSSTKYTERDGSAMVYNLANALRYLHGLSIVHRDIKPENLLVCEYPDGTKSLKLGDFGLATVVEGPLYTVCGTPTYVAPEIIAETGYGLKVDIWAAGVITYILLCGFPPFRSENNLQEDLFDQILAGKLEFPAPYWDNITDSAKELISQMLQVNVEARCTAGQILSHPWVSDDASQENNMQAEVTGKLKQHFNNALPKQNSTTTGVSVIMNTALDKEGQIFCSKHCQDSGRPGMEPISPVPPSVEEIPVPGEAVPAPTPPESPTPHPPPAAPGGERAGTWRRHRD
In short: as §1

PKG1β(h) = PKG1β(h) (Homo sapiens, UniProt Q13976)
In short: as §1

RIPK2(h) = RIPK2(h) (Homo sapiens, UniProt O43353)
In short: as §1

PrKX(h) = PrKX(h) (Homo sapiens, UniProt P51817)
In short: as §1

EphA3(h) = EphA3(h) (Homo sapiens, UniProt P29320)
In short: as §1

Fgr(h) = Fgr(h) (Homo sapiens, UniProt P09769)
In short: as §1

SAPK2b(h) = SAPK2b(h) (Homo sapiens, UniProt Q15759)
In short: as §1

EphA4(h) = EphA4(h) (Homo sapiens, UniProt P54764)
In short: as §1

BrSK2(h) = BrSK2(h) (Homo sapiens, UniProt Q8IWQ3)
Chain of BrSK2(h) (Q8IWQ3 whole entry): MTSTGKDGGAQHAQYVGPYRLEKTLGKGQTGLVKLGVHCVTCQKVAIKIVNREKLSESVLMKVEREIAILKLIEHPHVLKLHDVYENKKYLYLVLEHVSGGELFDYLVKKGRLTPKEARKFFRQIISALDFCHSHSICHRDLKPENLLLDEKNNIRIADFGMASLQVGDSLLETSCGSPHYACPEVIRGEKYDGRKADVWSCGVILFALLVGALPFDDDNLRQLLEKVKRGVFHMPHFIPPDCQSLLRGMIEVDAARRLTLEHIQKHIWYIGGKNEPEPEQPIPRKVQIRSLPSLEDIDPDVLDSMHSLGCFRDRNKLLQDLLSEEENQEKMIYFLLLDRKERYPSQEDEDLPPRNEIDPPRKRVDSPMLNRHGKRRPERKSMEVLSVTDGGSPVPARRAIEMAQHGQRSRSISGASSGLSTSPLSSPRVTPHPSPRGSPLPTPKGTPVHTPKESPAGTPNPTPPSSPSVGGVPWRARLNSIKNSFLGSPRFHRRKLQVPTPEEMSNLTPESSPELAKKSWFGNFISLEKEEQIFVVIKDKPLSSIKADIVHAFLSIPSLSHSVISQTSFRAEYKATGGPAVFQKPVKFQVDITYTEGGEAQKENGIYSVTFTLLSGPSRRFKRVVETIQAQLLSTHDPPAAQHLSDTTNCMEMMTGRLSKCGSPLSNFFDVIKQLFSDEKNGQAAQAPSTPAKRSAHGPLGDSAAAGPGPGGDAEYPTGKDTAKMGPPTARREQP
In short: as §1

DAPK2(h) = DAPK2(h) (Homo sapiens, UniProt Q9UIK4)
In short: as §1

Ron(h) = Ron(h) (Homo sapiens, UniProt Q04912)
In short: as §1

PAK5(h) = PAK5(h) (Homo sapiens, UniProt Q9P286)
In short: as §1

HIPK3(h) = HIPK3(h) (Homo sapiens, UniProt Q9H422)
In short: as §1

Pyk2(h) = Pyk2(h) (Homo sapiens, UniProt Q14289)
In short: as §1

HIPK2(h) = HIPK2(h) (Homo sapiens, UniProt Q9H2X6)
In short: as §1

SRPK1(h) = SRPK1(h) (Homo sapiens, UniProt Q96SB4)
In short: as §1

WNK3(h) = WNK3(h) (Homo sapiens, UniProt Q9BYP7)
Chain of WNK3(h) (Q9BYP7 whole entry): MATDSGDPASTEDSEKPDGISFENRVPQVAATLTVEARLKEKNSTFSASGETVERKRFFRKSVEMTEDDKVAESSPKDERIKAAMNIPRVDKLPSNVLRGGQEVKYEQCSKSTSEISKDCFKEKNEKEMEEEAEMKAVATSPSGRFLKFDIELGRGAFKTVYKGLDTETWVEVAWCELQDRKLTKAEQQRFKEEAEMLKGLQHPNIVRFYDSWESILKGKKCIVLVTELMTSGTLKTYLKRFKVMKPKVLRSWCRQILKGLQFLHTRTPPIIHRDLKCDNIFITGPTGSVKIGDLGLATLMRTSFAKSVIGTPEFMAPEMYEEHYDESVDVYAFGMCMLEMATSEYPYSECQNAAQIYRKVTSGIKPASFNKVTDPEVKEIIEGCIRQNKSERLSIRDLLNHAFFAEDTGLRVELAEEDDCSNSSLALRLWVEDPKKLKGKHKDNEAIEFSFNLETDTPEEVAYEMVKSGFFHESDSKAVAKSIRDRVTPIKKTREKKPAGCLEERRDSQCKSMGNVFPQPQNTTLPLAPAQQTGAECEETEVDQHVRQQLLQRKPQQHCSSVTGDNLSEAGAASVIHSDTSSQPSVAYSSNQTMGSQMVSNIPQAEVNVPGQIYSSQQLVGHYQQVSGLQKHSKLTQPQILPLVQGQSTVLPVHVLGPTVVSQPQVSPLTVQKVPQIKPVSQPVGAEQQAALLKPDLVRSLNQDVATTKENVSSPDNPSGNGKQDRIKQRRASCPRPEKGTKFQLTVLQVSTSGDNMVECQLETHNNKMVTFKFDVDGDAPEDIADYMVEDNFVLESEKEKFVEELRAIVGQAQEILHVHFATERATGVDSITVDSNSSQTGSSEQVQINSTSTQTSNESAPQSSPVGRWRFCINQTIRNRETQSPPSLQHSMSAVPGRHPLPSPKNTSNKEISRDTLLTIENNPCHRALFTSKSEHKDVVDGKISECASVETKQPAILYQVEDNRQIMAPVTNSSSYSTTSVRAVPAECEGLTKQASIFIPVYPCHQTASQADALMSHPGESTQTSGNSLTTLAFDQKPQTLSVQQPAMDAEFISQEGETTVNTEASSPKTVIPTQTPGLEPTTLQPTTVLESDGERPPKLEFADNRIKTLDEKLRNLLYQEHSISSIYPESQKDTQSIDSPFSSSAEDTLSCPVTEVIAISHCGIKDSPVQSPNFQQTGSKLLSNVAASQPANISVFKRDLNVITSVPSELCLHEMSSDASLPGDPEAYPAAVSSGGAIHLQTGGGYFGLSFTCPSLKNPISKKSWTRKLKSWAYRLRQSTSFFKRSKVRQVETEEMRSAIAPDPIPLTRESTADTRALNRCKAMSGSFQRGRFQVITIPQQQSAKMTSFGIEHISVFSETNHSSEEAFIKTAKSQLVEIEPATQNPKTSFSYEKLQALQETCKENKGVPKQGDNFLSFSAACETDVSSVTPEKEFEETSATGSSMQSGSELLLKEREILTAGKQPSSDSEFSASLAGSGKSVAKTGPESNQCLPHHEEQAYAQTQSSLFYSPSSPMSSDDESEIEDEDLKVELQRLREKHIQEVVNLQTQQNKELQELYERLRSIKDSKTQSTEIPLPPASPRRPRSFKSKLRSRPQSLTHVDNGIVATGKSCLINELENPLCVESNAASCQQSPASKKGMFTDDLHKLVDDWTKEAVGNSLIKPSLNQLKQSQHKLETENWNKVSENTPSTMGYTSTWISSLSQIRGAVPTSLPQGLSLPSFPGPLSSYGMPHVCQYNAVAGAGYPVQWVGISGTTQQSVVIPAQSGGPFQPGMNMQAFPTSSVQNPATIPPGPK
In short: as §1

JNK2α2(h) = JNK2α2(h) (Homo sapiens, UniProt P45984)
In short: as §1

MRCKα(h) = MRCKα(h) (Homo sapiens, UniProt Q5VT25)
In short: as §1

Rsk3(h) = Rsk3(h) (Homo sapiens, UniProt Q15349)
In short: as §1

PKA(h) = PKA(h) (Homo sapiens, UniProt P17612)
In short: as §1

Plk3(h) = Plk3(h) (Homo sapiens, UniProt Q9H4B4)
In short: as §1

Nc1n[nH]c2ccc(-c3ccnc4[nH]c(-c5ccccc5)cc34)cc12 [Compound 4]
inhibition at 1 µM (IGF-1R(h)): 64% | inhibition at 1 µM (GRK5(h)): 5% | inhibition at 1 µM (Hck(h) activated): 38% | inhibition at 1 µM (Fyn(h)): 64% | inhibition at 1 µM (PKG1α(h)): 29% | inhibition at 1 µM (AMPKα2(h)): 43% | inhibition at 1 µM (CSK(h)): -16% | inhibition at 1 µM (Axl(h)): 55% | inhibition at 1 µM (PDGFRα(h)): 8% | inhibition at 1 µM (Rsk2(h)): 28% | inhibition at 1 µM (NEK6(h)): 6% | inhibition at 1 µM (Ros(h)): 16% | inhibition at 1 µM (Bmx(h)): 55% | inhibition at 1 µM (Blk(h)): 37% | inhibition at 1 µM (ALK4(h)): 25% | inhibition at 1 µM (Pim-3(h)): 10% | inhibition at 1 µM (cKit(h)): 51% | inhibition at 1 µM (PKCγ(h)): -5% | inhibition at 1 µM (DMPK(h)): 5% | inhibition at 1 µM (SAPK2a(h)): -16% | inhibition at 1 µM (DCAMKL2(h)): 33% | inhibition at 1 µM (PKG1β(h)): 13% | inhibition at 1 µM (RIPK2(h)): 54% | inhibition at 1 µM (PrKX(h)): -21% | inhibition at 1 µM (EphA3(h)): 19% | inhibition at 1 µM (Fgr(h)): 54% | inhibition at 1 µM (SAPK2b(h)): -13% | inhibition at 1 µM (EphA4(h)): 9% | inhibition at 1 µM (BrSK2(h)): 41% | inhibition at 1 µM (DAPK2(h)): 2% | inhibition at 1 µM (Ron(h)): 53% | inhibition at 1 µM (PAK5(h)): 16% | inhibition at 1 µM (HIPK3(h)): 26% | inhibition at 1 µM (Pyk2(h)): 63% | inhibition at 1 µM (HIPK2(h)): 57% | inhibition at 1 µM (SRPK1(h)): 5% | inhibition at 1 µM (WNK3(h)): 20% | inhibition at 1 µM (JNK2α2(h)): 22% | inhibition at 1 µM (MRCKα(h)): -22% | inhibition at 1 µM (Rsk3(h)): 53% | inhibition at 1 µM (PKA(h)): 29% | inhibition at 1 µM (Plk3(h)): -6%

Nc1n[nH]c2ccc(-c3ccnc4[nH]c(-c5cccc(OCc6ccccc6)c5)cc34)cc12 [Compound 5r [SU1261]]
inhibition at 1 µM (IGF-1R(h)): 14% | inhibition at 1 µM (GRK5(h)): 3% | inhibition at 1 µM (Hck(h) activated): 22% | inhibition at 1 µM (Fyn(h)): 33% | inhibition at 1 µM (PKG1α(h)): 30% | inhibition at 1 µM (AMPKα2(h)): 13% | inhibition at 1 µM (CSK(h)): -4% | inhibition at 1 µM (Axl(h)): 9% | inhibition at 1 µM (PDGFRα(h)): -12% | inhibition at 1 µM (Rsk2(h)): 0% | inhibition at 1 µM (NEK6(h)): 3% | inhibition at 1 µM (Ros(h)): 11% | inhibition at 1 µM (Bmx(h)): 17% | inhibition at 1 µM (Blk(h)): -4% | inhibition at 1 µM (ALK4(h)): 8% | inhibition at 1 µM (Pim-3(h)): 6% | inhibition at 1 µM (cKit(h)): 9% | inhibition at 1 µM (PKCγ(h)): -2% | inhibition at 1 µM (DMPK(h)): -4% | inhibition at 1 µM (SAPK2a(h)): 0% | inhibition at 1 µM (DCAMKL2(h)): 6% | inhibition at 1 µM (PKG1β(h)): 1% | inhibition at 1 µM (RIPK2(h)): 19% | inhibition at 1 µM (PrKX(h)): -22% | inhibition at 1 µM (EphA3(h)): 0% | inhibition at 1 µM (Fgr(h)): 33% | inhibition at 1 µM (SAPK2b(h)): -18% | inhibition at 1 µM (EphA4(h)): 2% | inhibition at 1 µM (BrSK2(h)): 9% | inhibition at 1 µM (DAPK2(h)): 13% | inhibition at 1 µM (Ron(h)): 7% | inhibition at 1 µM (PAK5(h)): 10% | inhibition at 1 µM (HIPK3(h)): 6% | inhibition at 1 µM (Pyk2(h)): 22% | inhibition at 1 µM (HIPK2(h)): 14% | inhibition at 1 µM (SRPK1(h)): 7% | inhibition at 1 µM (WNK3(h)): 17% | inhibition at 1 µM (JNK2α2(h)): -6% | inhibition at 1 µM (MRCKα(h)): -18% | inhibition at 1 µM (Rsk3(h)): 27% | inhibition at 1 µM (PKA(h)): -6% | inhibition at 1 µM (Plk3(h)): -7%
